Drawing on patent US20070249670A1, “Glycogen Phosphorylase Inhibitor Compounds and Pharmaceutical Compositions Thereof” (SMITHKLINE BEECHAM CORPORATION, priority 2004, published 2007), this text covers IC50 for 33 compounds.

In this assay the target is T1, human liver glycogen phosphorylase a (HLGPa) (Homo sapiens, UniProt P06737).
T1 construct: creating a full-length cDNA fused at the 5′ end to codons for methionine-glycine-alanine-histidine; 6xHis tag (leader Met-Gly-Ala-His6-Gly-Gly) (N); made in house; host or cells: E. coli (bacterial expression plasmid pTXK1007LTev)
T1 sequence (P06737 2-847 limits assumed): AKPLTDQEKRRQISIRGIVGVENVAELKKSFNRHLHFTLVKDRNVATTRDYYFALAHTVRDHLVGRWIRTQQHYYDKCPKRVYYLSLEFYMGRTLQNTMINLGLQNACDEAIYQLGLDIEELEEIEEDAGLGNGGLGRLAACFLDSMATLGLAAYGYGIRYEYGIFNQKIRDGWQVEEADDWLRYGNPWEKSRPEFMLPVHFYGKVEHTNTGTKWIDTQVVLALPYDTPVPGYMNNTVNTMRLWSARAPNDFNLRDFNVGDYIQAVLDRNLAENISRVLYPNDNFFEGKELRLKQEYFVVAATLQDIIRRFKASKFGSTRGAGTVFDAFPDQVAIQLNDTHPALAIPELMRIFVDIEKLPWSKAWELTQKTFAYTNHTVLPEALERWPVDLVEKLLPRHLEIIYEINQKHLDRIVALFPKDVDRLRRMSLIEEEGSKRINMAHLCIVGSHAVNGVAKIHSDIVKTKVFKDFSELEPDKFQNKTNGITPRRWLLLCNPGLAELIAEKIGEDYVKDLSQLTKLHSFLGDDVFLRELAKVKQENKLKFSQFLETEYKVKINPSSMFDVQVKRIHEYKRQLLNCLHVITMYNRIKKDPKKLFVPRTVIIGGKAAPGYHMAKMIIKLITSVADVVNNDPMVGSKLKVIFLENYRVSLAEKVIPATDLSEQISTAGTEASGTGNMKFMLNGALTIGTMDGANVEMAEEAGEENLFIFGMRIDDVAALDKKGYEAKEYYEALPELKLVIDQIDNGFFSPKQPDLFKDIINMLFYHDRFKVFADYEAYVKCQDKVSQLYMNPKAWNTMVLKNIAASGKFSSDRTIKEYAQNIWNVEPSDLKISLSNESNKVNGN
Put plainly: Human liver glycogen phosphorylase a enzymatic activity assay (coupled, fluorescent resorufin readout, with and without 10 mM glucose). The assay is classed as biochemical. The note with it: human liver glycogen phosphorylase a enzymatic activity assay.

Structures are written as SMILES. Where a name gives a salt, the structure may show the parent alone.

For orientation: IC50 means the point on the concentration scale where inhibition reaches its midpoint. A lower IC50 goes with greater potency.

For the compound `Cc1cccc(C)c1NC(=O)Nc1cc2ccccc2cc1C(=O)N[C@H](C(=O)O)C(C)C` [Example 21, N-[3-({[(2,6-dimethylphenyl)amino]carbonyl}amino)-2-naphthoyl]-L-valine], the IC50 amounted to 1960 nM.
The same measure for `Cc1cccc(C)c1NC(=O)Nc1cc2ccccc2cc1C(=O)N[C@H](C(=O)O)[C@@H](C)O` [Example 22, N-[3-({[(2,6-dimethylphenyl)amino]carbonyl}amino)-2-naphthoyl]-L-threonine]: 1080 nM; for `CC[C@H](C)[C@H](NC(=O)c1cc2ccccc2cc1NC(=O)Nc1c(C)cccc1C)C(=O)O` [Example 23, N-[3-({[(2,6-dimethylphenyl)amino]carbonyl}amino)-2-naphthoyl]-L-isoleucine]: 890 nM.
The compound `Cc1cccc(C)c1NC(=O)Nc1cc2ccccc2cc1C(=O)N[C@@H](CC(C)C)C(=O)O` [Example 24, N-[3-({[(2,6-dimethylphenyl)amino]carbonyl}amino)-2-naphthoyl]-L-leucine] had a half-inhibitory concentration (IC50) of 1190 nM.
As for `Cc1cccc(C)c1NC(=O)Nc1cc2ccccc2cc1C(=O)N[C@@H](CC(N)=O)C(=O)O` [Example 25, N-[3-({[(2,6-dimethylphenyl)amino]carbonyl}amino)-2-naphthoyl]-L-asparagine], the IC50 stood at 670 nM. Against the preceding compound, the IC50 is about 1.8-fold lower.
The compound `Cc1cccc(C)c1NC(=O)Nc1cc2ccccc2cc1C(=O)N[C@@H](CCC(N)=O)C(=O)O` [Example 26, N-[3-({[(2,6-dimethylphenyl)amino]carbonyl}amino)-2-naphthoyl]-L-glutamine] yielded an IC50 of 3010 nM.
In the case of `C[C@H](NC(=O)c1cc2ccccc2cc1NC(=O)Nc1ccccc1Cl)C(=O)O` [Example 27, N-[3-({[(2-chlorophenyl)amino]carbonyl}amino)-2-naphthoyl]-L-alanine], the IC50 is 13500 nM.
In turn, `O=C(Nc1ccccc1Cl)Nc1cc2ccccc2cc1C(=O)N[C@@H](CO)C(=O)O` [Example 28, N-[3-({[(2-chlorophenyl)amino]carbonyl}amino)-2-naphthoyl]-L-serine] registered an IC50 of 24100 nM.
Compound `C[C@@H](O)[C@H](NC(=O)c1cc2ccccc2cc1NC(=O)Nc1ccccc1Cl)C(=O)O` [Example 29, N-[3-({[(2-chlorophenyl)amino]carbonyl}amino)-2-naphthoyl]-L-threonine] had an IC50 of 7260 nM.
The compound `CC[C@H](C)[C@H](NC(=O)c1cc2ccccc2cc1NC(=O)Nc1ccccc1Cl)C(=O)O` [Example 30, N-[3-({[(2-chlorophenyl)amino]carbonyl}amino)-2-naphthoyl]-L-isoleucine] returned an IC50 of 22100 nM.
`NC(=O)C[C@H](NC(=O)c1cc2ccccc2cc1NC(=O)Nc1ccccc1Cl)C(=O)O` [Example 31, N-[3-({[(2-chlorophenyl)amino]carbonyl}amino)-2-naphthoyl]-L-asparagine]: the IC50 turned out to be 11400 nM.
For `NC(=O)CC[C@H](NC(=O)c1cc2ccccc2cc1NC(=O)Nc1ccccc1Cl)C(=O)O` [Example 32, N-[3-({[(2-chlorophenyl)amino]carbonyl}amino)-2-naphthoyl]-L-glutamine], the IC50 was found to be 41000 nM.
On to `Cc1cccc(Cl)c1NC(=O)Nc1cc2ccccc2cc1C(=O)N[C@@H](C)C(=O)O` [Example 33, N-[3-({[(2-chloro-6-methylphenyl)amino]carbonyl}amino)-2-naphthoyl]-L-alanine], for which the midpoint of inhibition, the IC50, lay at 520 nM. This IC50 lies about 79-fold lower than the previous one.
As to `Cc1cccc(Cl)c1NC(=O)Nc1cc2ccccc2cc1C(=O)N[C@@H](CO)C(=O)O` [Example 34, N-[3-({[(2-chloro-6-methylphenyl)amino]carbonyl}amino)-2-naphthoyl]-L-serine], the 50% inhibitory concentration (IC50) was 640 nM. The IC50 values of the last two compounds are within 1.5-fold of each other.
To `Cc1cccc(Cl)c1NC(=O)Nc1cc2ccccc2cc1C(=O)N1CCC[C@H]1C(=O)O` [Example 35, 1-[3-({[(2-chloro-6-methylphenyl)amino]carbonyl}amino)-2-naphthoyl]-L-proline] belongs 580 nM; to `Cc1cccc(Cl)c1NC(=O)Nc1cc2ccccc2cc1C(=O)N[C@H](C(=O)O)C(C)C` [Example 36, N-[3-({[(2-chloro-6-methylphenyl)amino]carbonyl}amino)-2-naphthoyl]-L-valine], 1710 nM.
Compound `Cc1cccc(Cl)c1NC(=O)Nc1cc2ccccc2cc1C(=O)N[C@H](C(=O)O)[C@@H](C)O` [Example 37, N-[3-({[(2-chloro-6-methylphenyl)amino]carbonyl}amino)-2-naphthoyl]-L-threonine] showed an IC50 of 430 nM. This IC50 lies about 4-fold lower than the previous one.
As to `CC[C@H](C)[C@H](NC(=O)c1cc2ccccc2cc1NC(=O)Nc1c(C)cccc1Cl)C(=O)O` [Example 38, N-[3-({[(2-chloro-6-methylphenyl)amino]carbonyl}amino)-2-naphthoyl]-L-isoleucine], 280 nM corresponded to half-maximal inhibition (IC50).
For the compound `Cc1cccc(Cl)c1NC(=O)Nc1cc2ccccc2cc1C(=O)N[C@@H](CC(C)C)C(=O)O` [Example 39, N-[3-({[(2-chloro-6-methylphenyl)amino]carbonyl}amino)-2-naphthoyl]-L-leucine], the IC50 was 600 nM. Compared with the last compound, the IC50 is about 2.1-fold higher.
For the compound `Cc1cccc(Cl)c1NC(=O)Nc1cc2ccccc2cc1C(=O)N[C@@H](CC(N)=O)C(=O)O` [Example 40, N-[3-({[(2-chloro-6-methylphenyl)amino]carbonyl}amino)-2-naphthoyl]-L-asparagine], the IC50 was determined as 420 nM.
The same measure for `Cc1cccc(Cl)c1NC(=O)Nc1cc2ccccc2cc1C(=O)N[C@@H](CCC(N)=O)C(=O)O` [Example 41, N-[3-({[(2-chloro-6-methylphenyl)amino]carbonyl}amino)-2-naphthoyl]-L-glutamine]: 1320 nM; for `Cc1ccccc1NC(=O)Nc1cc2ccccc2cc1C(=O)N[C@@H](CCC(=O)O)C(=O)O` [Example 42, N-[3-({[(2-methylphenyl)amino]carbonyl}amino)-2-naphthoyl]-L-glutamic acid]: 28300 nM; for `CSCC[C@H](NC(=O)c1cc2ccccc2cc1NC(=O)Nc1ccccc1C)C(=O)O` [Example 43, N-[3-({[(2-methylphenyl)amino]carbonyl}amino)-2-naphthoyl]-L-methionine]: 18900 nM.
In turn, `Cc1ccccc1NC(=O)Nc1cc2ccccc2cc1C(=O)N[C@@H](Cc1cnc[nH]1)C(=O)O` [Example 44, N-[3-({[(2-methylphenyl)amino]carbonyl}amino)-2-naphthoyl]-L-histidine trifluoroacetate] gave an IC50 of 5180 nM.
Consider `Cc1ccccc1NC(=O)Nc1cc2ccccc2cc1C(=O)N[C@@H](Cc1ccccc1)C(=O)O` [Example 45, N-[3-({[(2-methylphenyl)amino]carbonyl}amino)-2-naphthoyl]-L-phenylalanine], for which half-maximal inhibition (IC50) was put at 16900 nM.
As for `Cc1ccccc1NC(=O)Nc1cc2ccccc2cc1C(=O)N[C@@H](Cc1c[nH]c2ccccc12)C(=O)O` [Example 46, N-[3-({[(2-methylphenyl)amino]carbonyl}amino)-2-naphthoyl]-L-tryptophan], 3730 nM corresponded to half-maximal inhibition (IC50).
Take `Cc1cccc(C)c1NC(=O)Nc1cc2ccccc2cc1C(=O)N[C@@H](CCCCN)C(=O)O` [Example 47, N-[3-({[(2,6-dimethylphenyl)amino]carbonyl}amino)-2-naphthoyl]-L-lysine trifluoroacetate]: half-maximal inhibition (IC50) was put at 8060 nM.
In the case of `Cc1cccc(C)c1NC(=O)Nc1cc2ccccc2cc1C(=O)N[C@@H](CCC(=O)O)C(=O)O` [Example 48, N-[3-({[(2,6-dimethylphenyl)amino]carbonyl}amino)-2-naphthoyl]-L-glutamic acid], the midpoint of inhibition, the IC50, lay at 1730 nM.
As for `CSCC[C@H](NC(=O)c1cc2ccccc2cc1NC(=O)Nc1c(C)cccc1C)C(=O)O` [Example 49, N-[3-({[(2,6-dimethylphenyl)amino]carbonyl}amino)-2-naphthoyl]-L-methionine], the IC50 was 1670 nM. This IC50 and that of the compound before are within 1.5-fold of each other.
Take `Cc1cccc(C)c1NC(=O)Nc1cc2ccccc2cc1C(=O)N[C@@H](Cc1cnc[nH]1)C(=O)O` [Example 50, N-[3-({[(2,6-dimethylphenyl)amino]carbonyl}amino)-2-naphthoyl]-L-histidine trifluoroacetate]: the IC50 came out at 2300 nM.
Consider `Cc1cccc(C)c1NC(=O)Nc1cc2ccccc2cc1C(=O)N[C@@H](Cc1ccccc1)C(=O)O` [Example 51, N-[3-({[(2,6-dimethylphenyl)amino]carbonyl}amino)-2-naphthoyl]-L-phenylalanine], for which the IC50 was 680 nM. This IC50 is about 3.4-fold lower than that of the compound before.
Consider `Cc1cccc(C)c1NC(=O)Nc1cc2ccccc2cc1C(=O)N[C@@H](CCCNC(=N)N)C(=O)O` [Example 52, N-[3-({[(2,6-dimethylphenyl)amino]carbonyl}amino)-2-naphthoyl]-L-arginine], for which the IC50 came out at 4640 nM.
Compound `Cc1cccc(C)c1NC(=O)Nc1cc2ccccc2cc1C(=O)N[C@@H](Cc1ccc(O)cc1)C(=O)O` [Example 53, N-[3-({[(2,6-dimethylphenyl)amino]carbonyl}amino)-2-naphthoyl]-L-tyrosine] yielded an IC50 of 360 nM. Against the preceding compound, the IC50 is about 13-fold lower.
